Consider five compounds from patent US20250340556A1, “PYRIMIDOPYRIMIDONE COMPOUNDS AND METHODS OF USE THEREOF” (Soltego, Inc., priority 2022, published 2025).

“Also recorded” adds a separate entry of the source. Like-named read-outs stand apart in the source and are kept apart here.

The conditions of series [1]: ester bond.
Another series addresses SIK (h) / SIK1 (Homo sapiens (Human), UniProt P57059). As to the kind of experiment: SIK1 kinase activity, Eurofins KinaseProfiler ([γ-33P]-ATP filter assay). The format is biochemical. To be noted: Table 6, macrocycles. As for the experimental part:
(§1) SIK1, 2 and 3 kinase activity was assessed using a Eurofins Cerep S.A. (‘Eurofins’) KinaseProfiler. All compounds were prepared to 50× final assay concentration in 100% DMSO. This working stock of the compound was added to the assay well as the first component in the reaction, followed by the remaining components as detailed in the general assay protocols below. In the standard KinaseProfiler service, there is no pre-incubation step between the compound and the kinase prior to initiation of the reaction. The positive control well contains all components of the reaction, except the compound of interest; however, DMSO (at a final concentration of 2%) is included in these wells to control for solvent effects. The blank wells contain all components of the reaction, with a reference inhibitor replacing the compound of interest. This abolishes kinase activity and establishes the base-line (0% kinase activity remaining).
SIK (h) was incubated with 8 mM MOPS pH 7.0, 0.2 mM EDTA, 100 μM […], 10 mM Magnesium acetate and [γ-33P]-ATP (specific activity and concentration as required). The reaction was initiated by the addition of the Mg/ATP mix. After incubation for 40 minutes at room temperature, the reaction was stopped by the addition of phosphoric acid to a concentration of 0.5%, 10 μL of the reaction was then spotted onto a P30 filtermat and washed four times for 4 minutes in 0.425% phosphoric acid and once in methanol prior to drying and scintillation counting.

The next series deals with SIK2 (h) (Homo sapiens (Human), UniProt Q9H0K1). The series is described as follows: SIK2 kinase activity, Eurofins KinaseProfiler ([γ-33P]-ATP filter assay). The format is biochemical. The conditions noted are these: Table 6, macrocycles; read-out: IC50 nM SIK2. As for the experimental part: as §1
SIK2 (h) was incubated with 8 mM MOPS pH 7.0, 0.2 mM EDTA, 100 μM […], 10 mM Magnesium acetate and [γ-33P-ATP](specific activity and concentration as required). The reaction was initiated by the addition of the Mg/ATP mix. After incubation for 40 minutes at room temperature, the reaction was stopped by the addition of phosphoric acid to a concentration of 0.5%, 10 μL of the reaction was then spotted onto a P30 filtermat and washed four times for 4 minutes in 0.425% phosphoric acid and once in methanol prior to drying and scintillation counting.

In another series the target is SIK3 (h) (Homo sapiens (Human), UniProt Q9Y2K2). The series is described as follows: SIK3 kinase activity, Eurofins KinaseProfiler ([γ-33P]-ATP filter assay). To be noted: Table 6, macrocycles. The format is biochemical. As for the experimental part:
as §1
SIK3 (h) was incubated with 8 mM MOPS pH 7.0, 0.2 mM EDTA, 100 μM […], 10 mM Magnesium acetate and [γ-33P-ATP](specific activity and concentration as required). The reaction was initiated by the addition of the Mg/ATP mix. After incubation for 40 minutes at room temperature, the reaction is stopped by the addition of phosphoric acid to a concentration of 0.5%, […] of the reaction was then spotted onto a P30 filtermat and washed four times for 4 minutes in 0.425% phosphoric acid and once in methanol prior to drying and scintillation counting.

Another series has as its system B16 4A5 cells. The series is described as follows: B16 4A5 cell viability, MTS assay. To be noted: 72 h, compared with DMSO 0.1% control; for viability of cells: 5 μg/mL. It is filed as cell-based, mouse. The protocol:
B16 4A5 cells were seeded in 24-well plates at 20,000 cells/well, 24 h before the beginning of the treatment with test compounds at 5 concentrations, in triplicates (n=3). […] Additionally, DMSO at 0.1%, used for solubilization of the test compounds, was tested in parallel. The treatments were performed in culture medium containing only 1% of FBS. […] The effects of the compounds on B16 4A5 viability was assessed. To this purpose, cells were incubated during 72 h with 5 concentrations of the compounds, were left untreated, treated with SDS or with DMSO 0.1%.
For orientation: Formazan colour is commonly taken as a measure of viable cells.

For series [2], the system named is living human skin explants. As to the kind of experiment: Cell viability of living human skin explants, Masson's trichrome staining (Example 8). The format is cell-based. The conditions noted are these: 1% topical in vehicle E. The protocol:
All the tested products were diluted in the vehicle noted as E (Ethanol 65%, Propylene glycol 25%, Transcutol 10%). The diluted solutions were stored at 4° C. within the study period. 36 human skin explants of an average diameter of 11 mm (+1 mm) were prepared on an abdoplasty coming from a person (reference: P2462-AB53) with a III phototype. The explants were kept in survival in BEM culture medium (BIO-EC's Explants Medium) at 37° C. in a humid, 5%-CO2 atmosphere. Study is performed on human skin tissue, obtained from surgical residues in full respect with the Declaration of Helsinki and the article L. 1243-4 of the French Public Health Code.
The excipient E and the tested products were applied topically at a rate of 2 μL per 1 cm^2 explant (˜2 mg/cm^2) and spread and gently rubbed for 10 seconds using a small spatula on day 0 (DO), D3, D5, D7 and D10. […] The culture medium was half renewed (1 ml per well) on D3, D5, D7 and D10. On D0, D3, D4, D5, D6, D7 and D10, the culture media of the irradiated explants (UV) were replaced by HBSS (Hank's Balanced Saline Solution; 1 ml per explant). Then, the explants of the “UV” batch were irradiated using a UV simulator Vibert Lourmat RMX 3W with a dose of 2.25 J/cm^2 of UVA (with 6-8% of UVB) corresponding to 0.5 MED (minimal erythemal dose) on a skin with a III phototype. At the end of the UV irradiation, the explants form the batch TUV were put back in 2 mL of BEM medium. On D0, the 3 explants from the batch TO were collected and cut in two parts. Half was fixed in buffered formalin solution and half was frozen at −80° C. On D10, 3 explants from the concerned batches were collected and treated in the same way than in DO. According to the dispositions mentioned in the study plan, the days of treatments, irradiations and sampling were adjusted to the schedule of working days. After fixation for 24 hours in buffered formalin, the samples were dehydrated and impregnated in paraffin using a Leica PEARL dehydration automat. The samples were embedded using a Leica EG 1160 embedding station. 5-μm-thick sections were made using a Leica RM 2125 Minot-type microtome, and the sections were mounted on Superfrost® histological glass slides. The frozen samples were cut into 7-μm-thick sections using a Leica CM 3050 cryostat. Sections were then mounted on Superfrost®, plus silanized glass slides. The microscopical observations were realized using a Leica DMLB or Olympus BX43 microscope. Pictures were digitized with a numeric DP72 Olympus camera with CellSens storing software.
The cell viability of the epidermal and dermal structures was assessed by microscopical observation of formalin-fixed paraffin-embedded (FFPE) skin sections after Masson's trichrome staining, Goldner variant.

The target in another series is SIK1 (Homo sapiens (Human), UniProt P57059). The series is described as follows: cell-based.
The subject of series [3] is living human skin explants. It is filed as cell-based.
For series [4], the system named is living human skin explants. The series is described as follows: Pigmentation of living human skin explants ex vivo (Example 10). The format is cell-based. The conditions noted are these: 15 mM and 21 mM, 5 μL/cm2 topically each day for 6 days. The protocol:
SLT-045 (3, 7, 15, 21 mM; 5 μL/cm2) in vehicle (44.9% DMSO/37.5% EtOH/17.4% propylene glycol) was applied topically applied using a Pasteur pipette, each day for 6 days using triplicate skin samples (8 mm punch).

The test system of series [5] is living human skin explants. The series is described as follows: Melanin in living human skin explants, Fontana-Masson staining (Example 9). The format is cell-based. To be noted: for melanin content (staining, microscopical observation): Propylene glycol 30%; for surface occupied by melanin in the basal cell layer of the epidermis: vehicle E 7.9. As for the experimental part:
All the tested products were diluted in the vehicle (Ethanol 70%, Propylene glycol 30%). 24 human skin explants of an average diameter of […] were prepared on an abdoplasty coming from a person (reference: P2511-AB43) with a II phototype. The explants were kept in survival in BEM culture medium (BIO-EC's Explants Medium) at 37° C. in a humid, 5%-CO2 atmosphere. Products were applied topically at a rate of 2 μL per 1 cm^2 explant (2 mg/cm^2) and spread and gently rubbed for 10 seconds using a small spatula on day 0 (D0), D2, D5 and D7. […] The culture medium was half renewed (1 ml per well) on D2, D5 and D7. After fixation for 24 hours in buffered formalin, the samples were dehydrated and impregnated in paraffin using a Leica PEARL dehydration automat. The samples were embedded using a Leica EG 1160 embedding station. 5-μm-thick sections were made using a Leica RM 2125 Minot-type microtome, and the sections were mounted on Superfrost® histological glass slides. The frozen samples were cut into 7-μm-thick sections using a Leica CM 3050 cryostat. Sections were then mounted on Superfrost® plus silanized glass slides. The microscopical observations were realized using a Leica DMLB or Olympus BX43 microscope. Pictures were digitized with a numeric DP72 Olympus camera with CellSens storing software. Melanin was visualized after silver impregnation according to Masson's Fontana staining method on FFPE skin sections. The staining was assessed by microscopical observation (FIG. 5) and by image analysis (FIG. 6).

SIK1, sequence (P57059 whole entry): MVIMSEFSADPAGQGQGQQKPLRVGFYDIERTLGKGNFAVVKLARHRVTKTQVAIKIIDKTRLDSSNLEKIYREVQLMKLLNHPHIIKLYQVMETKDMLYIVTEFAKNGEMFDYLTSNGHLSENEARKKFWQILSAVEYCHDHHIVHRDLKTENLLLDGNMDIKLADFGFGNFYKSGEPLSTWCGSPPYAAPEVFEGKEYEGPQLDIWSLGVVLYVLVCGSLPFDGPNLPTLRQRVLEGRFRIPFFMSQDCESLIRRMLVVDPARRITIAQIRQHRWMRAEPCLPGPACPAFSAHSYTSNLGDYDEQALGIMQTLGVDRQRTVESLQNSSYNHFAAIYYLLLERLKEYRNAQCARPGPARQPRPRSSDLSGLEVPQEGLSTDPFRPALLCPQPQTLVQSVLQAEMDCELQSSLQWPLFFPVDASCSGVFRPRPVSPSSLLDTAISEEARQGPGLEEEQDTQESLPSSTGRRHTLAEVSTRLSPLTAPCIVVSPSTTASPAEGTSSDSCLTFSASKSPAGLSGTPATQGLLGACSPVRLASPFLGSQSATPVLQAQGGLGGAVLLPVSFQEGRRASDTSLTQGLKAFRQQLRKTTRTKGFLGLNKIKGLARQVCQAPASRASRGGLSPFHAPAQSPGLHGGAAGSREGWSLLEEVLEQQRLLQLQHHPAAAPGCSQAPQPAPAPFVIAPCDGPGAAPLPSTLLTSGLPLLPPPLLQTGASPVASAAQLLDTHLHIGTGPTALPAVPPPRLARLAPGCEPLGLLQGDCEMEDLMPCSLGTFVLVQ

The compound `Cc1cccc(C)c1N1Cc2cnc3nc2N(CCC(=O)OCc2cc(ccc2N2CCN(C)CC2)N3)C1=O` [SLT-023] gave a ring closure, isolated yield in [1] (from Cc1cccc(C)c1N1Cc2cnc(Nc3ccc(N4CCN(C)CC4)c(CO)c3)nc2N(CCC(=O)O)C1=O, 13-membered ring, EDC.HCl/HOBt/DMAP/3A MS, DCM, 8.04 mM, 25.0 °C, 16.0 h) of 33%. Also, the IC50 (as a rule, the concentration at which inhibition is half-maximal) amounted to 3 nM at SIK (h) / SIK1, 3 nM at SIK2 (h) and 18 nM against SIK3 (h). Also, the cell viability result in the series with B16 4A5 cells (0.7 μg/mL) is given as “slightly decreased”. Besides, the viability of cells entry in the series on B16 4A5 cells was “slightly diminished”. In addition, the “cell viability of epidermal and dermal structures” value in series [2] is given as “very slightly decreased”. For the same compound, a half-maximal effect at SIK1 (EC50) was put at 86.6 nM.

As for `Cc1cccc(C)c1N1Cc2cnc3nc2N(CCCC(=O)OCc2cc(ccc2N2CCN(C)CC2)N3)C1=O` [SLT-026], the ring closure, isolated yield in [1] (from Cc1cccc(C)c1N1Cc2cnc(Nc3ccc(N4CCN(C)CC4)c(CO)c3)nc2N(CCCC(=O)O)C1=O, 14-membered ring, DCC/DMAP/3A MS, DCM/DMF, 5.37 mM, 25.0 °C, 16.0 h) amounted to 9%. Also, the half-maximal inhibitory concentration (IC50) at SIK (h) / SIK1 was found to be 2 nM; on SIK2 (h) it was 2 nM; against SIK3 (h), 3 nM. Moreover, in [2], the “cell viability of epidermal and dermal structures” value is given as “very slightly decreased”. For the same compound, the “increase of melanin in the suprabasal layers” value in series [3] was found to be 50%. At SIK1, it took 3.24 nM to reach a half-maximal effect (EC50).

Compound `Cc1cccc(C)c1N1Cc2cnc3nc2N(CCCCOC(=O)c2cc(ccc2N2CCN(C)CC2)N3)C1=O` [SLT-042] came in with a ring closure, isolated yield in [1] (from Cc1cccc(C)c1N1Cc2cnc(Nc3ccc(N4CCN(C)CC4)c(C(=O)O)c3)nc2N(CCCCO)C1=O, 14-membered ring, 2,4,6-trichlorobenzoyl chloride/TEA, DMAP, toluene/DMF, 5.0 mM, 110.0 °C, 16.0 h) of 22%. Moreover, the figures for the half-maximal inhibitory concentration (IC50) against SIK (h) / SIK1, on SIK2 (h) and on SIK3 (h) were 2 nM, 0.7 nM and 2 nM, respectively. Moreover, the “cell viability of epidermal and dermal structures” value in series [2] is reported as “very slightly decreased”. In addition, the “increase of melanin in the suprabasal layers” value in series [3] worked out at 25%. The EC50 (in general, the concentration needed to bring the measured effect to its halfway point) at SIK1 was found to be 2.02 nM.

Take `COC(=O)Cc1cc(Nc2ncc3c(n2)N(CCCO)C(=O)N(c2c(C)cccc2C)C3)ccc1N1CCN(C)CC1` [SLT-045]: in series [4], the visual skin pigmentation result is given as “induced a visual skin pigmentation”.

In the case of `Cc1cccc(C)c1N1Cc2cnc3nc2N(CCCOC(=O)Cc2cc(ccc2N2CCN(C)CC2)N3)C1=O` [SLT-048], the ring closure, isolated yield in series [1] (from Cc1cccc(C)c1N1Cc2cnc(Nc3ccc(N4CCN(C)CC4)c(CC(=O)O)c3)nc2N(CCCO)C1=O, 14-membered ring, DCC/DMAP/3A MS, DCM/DMF, 25.0 °C, 2.0 h) is 21%. Moreover, the IC50 at SIK2 (h) is 0.6 nM. In addition, the viability of cells entry with B16 4A5 cells is on record as “slightly diminished”. For the same compound, the “cell viability of epidermal and dermal structures” value in [2] is on record as “very slightly decreased”. In addition, the “change of surface occupied by melanin in the basal cell layer vs the vehicle” value in [5] (0.2% topical) is on record as “+24%”; in [5] (2% topical), “+56%”. The “melanin content (staining, microscopical observation)” value is “slight increase; also recorded: increased” in series [5] (0.2% topical in Ethanol 70%) and “moderate increase; also recorded: highly increased” in [5] (2% topical in Ethanol 70%). The “surface occupied by melanin in the basal cell layer of the epidermis” value in [5] (0.2% topical) was found to be 10.0; in series [5] (2% topical) it was 12.6. On SIK1, the EC50 stood at 2.58 nM.
